According to article PMC10215199 (Antioxidants, 2023):
Entries after “also recorded” stand apart in the source; their conditions may differ. Read-outs that look alike come from different tables or passages of the source.

Legend:
AChE = test system: AChE; design: method as in PMID 31891098; conditions: chromone-based compound 1, Figure 1; cited from earlier work
MAO-B = conditions: cited from earlier work
[1] = test system: immobility in forced swim test; experiment: Forced swim test, acute treatment; conditions: 1 and 10 mg/kg p.o.; for Immobility time in forced-swim test: versus control group
[2] = target: T1, acetylcholinesterase (AChE) (Mus musculus, UniProt P21836); experiment: Acetylcholinesterase inhibition assay (Ellman, mouse whole brain homogenate); format: biochemical; conditions: for IC50: ±SD
T1 construct: The supernatant obtained was used as a source of enzyme for; from tissue; host or cells: whole brain of male ICR mice, supernatant of the homogenate
T1 sequence (P21836 32-614): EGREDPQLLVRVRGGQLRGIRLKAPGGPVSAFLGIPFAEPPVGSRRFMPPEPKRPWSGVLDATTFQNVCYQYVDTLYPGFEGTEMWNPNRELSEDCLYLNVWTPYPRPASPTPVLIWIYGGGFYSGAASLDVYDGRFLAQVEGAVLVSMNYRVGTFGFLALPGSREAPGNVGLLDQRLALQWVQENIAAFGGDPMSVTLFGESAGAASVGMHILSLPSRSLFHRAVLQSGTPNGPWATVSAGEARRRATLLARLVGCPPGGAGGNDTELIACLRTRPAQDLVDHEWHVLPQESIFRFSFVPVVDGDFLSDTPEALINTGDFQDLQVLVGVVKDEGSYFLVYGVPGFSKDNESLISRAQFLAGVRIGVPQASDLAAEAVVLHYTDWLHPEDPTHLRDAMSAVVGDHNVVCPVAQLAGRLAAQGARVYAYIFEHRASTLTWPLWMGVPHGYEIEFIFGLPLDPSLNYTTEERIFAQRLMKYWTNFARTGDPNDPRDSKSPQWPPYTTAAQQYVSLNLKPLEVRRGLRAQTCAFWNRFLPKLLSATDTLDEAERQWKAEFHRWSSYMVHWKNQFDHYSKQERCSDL
Procedure: (§1) of compounds were determined as the mean ± S.E.M. in triplicate from the dose-response inhibition curves using SigmaPlot® 13.0.
2.2. In vitro acetylcholinesterase inhibition assay
(Eyela, Japan) containing 50 volumes of phosphate buffer (pH 8.0, 0.1 M), and then centrifuged at 14,000 rpm for 20 min at 4 °C. The supernatant obtained was used as a source of enzyme for the assay. Each drug was initially dissolved in dimethyl sulfoxide (DMSO) and diluted to various concentrations immediately before use. An aliquot of diluted drug solution was then mixed wit h 640 μL of phosphate buffer (0.1 M, pH 8.0), 25 μL of buffered Ellman’s reagent (10 mM 5,5′- dithio-bis(2-nitrobenzoic acid) and 15 mM sodium bicarbonate), and the enzyme source (100 μL) and pre-incubated at room temperature for 10 min. Then 5 μL of acetylthiocholine iodide solution (75 mM) was added to this mixture and mixed. Absorbance was measured at 410 nm after 10 min for the reaction adding 5 μL of acetylthiocholine iodide solution (75 mM) and to the reaction mixtures (OPTIZEN 2120UV, Mecasys Co. Ltd, Korea).

recombinant human MAO-B = target: T2, recombinant human MAO-B (Homo sapiens, UniProt P27338); experiment: biochemical; conditions: for inhibition at 10 µM: single dose concentration of 10 µM; for inhibition at 10 µM / IC50: ±sem; for IC50: five doses
T2 construct: purchased Sigma Aldrich
T2 sequence (P27338 1-520): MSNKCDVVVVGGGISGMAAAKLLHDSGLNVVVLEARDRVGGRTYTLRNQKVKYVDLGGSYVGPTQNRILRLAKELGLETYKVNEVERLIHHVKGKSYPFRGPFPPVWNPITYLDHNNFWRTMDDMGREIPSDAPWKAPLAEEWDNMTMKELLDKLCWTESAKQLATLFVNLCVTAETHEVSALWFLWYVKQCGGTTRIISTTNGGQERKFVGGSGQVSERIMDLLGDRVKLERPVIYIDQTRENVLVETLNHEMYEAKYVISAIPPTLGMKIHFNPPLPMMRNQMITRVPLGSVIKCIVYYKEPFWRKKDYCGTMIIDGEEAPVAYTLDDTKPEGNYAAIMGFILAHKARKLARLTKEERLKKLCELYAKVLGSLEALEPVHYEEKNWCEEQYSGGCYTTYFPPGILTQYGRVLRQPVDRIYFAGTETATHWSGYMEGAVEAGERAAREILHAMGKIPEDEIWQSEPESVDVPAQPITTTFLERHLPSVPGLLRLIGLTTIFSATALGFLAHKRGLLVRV

[3] = test system: scopolamine-induced cognitive deficits; experiment: Passive avoidance test, scopolamine-induced cognitive deficits; format: in vivo; conditions: scopolamine 1 mg/kg i.p., mice
recombinant human MAO-A = target: T3, recombinant human MAO-A (Homo sapiens, UniProt P21397); experiment: Monoamine oxidase-A inhibition assay (Amplex red fluorescence); format: biochemical; conditions: for inhibition at 1 µM: read-out: % Inhibition MAO-A; for inhibition at 100 µM: read-out: MAO-A % Inhibition
T3 sequence (P21397 1-527): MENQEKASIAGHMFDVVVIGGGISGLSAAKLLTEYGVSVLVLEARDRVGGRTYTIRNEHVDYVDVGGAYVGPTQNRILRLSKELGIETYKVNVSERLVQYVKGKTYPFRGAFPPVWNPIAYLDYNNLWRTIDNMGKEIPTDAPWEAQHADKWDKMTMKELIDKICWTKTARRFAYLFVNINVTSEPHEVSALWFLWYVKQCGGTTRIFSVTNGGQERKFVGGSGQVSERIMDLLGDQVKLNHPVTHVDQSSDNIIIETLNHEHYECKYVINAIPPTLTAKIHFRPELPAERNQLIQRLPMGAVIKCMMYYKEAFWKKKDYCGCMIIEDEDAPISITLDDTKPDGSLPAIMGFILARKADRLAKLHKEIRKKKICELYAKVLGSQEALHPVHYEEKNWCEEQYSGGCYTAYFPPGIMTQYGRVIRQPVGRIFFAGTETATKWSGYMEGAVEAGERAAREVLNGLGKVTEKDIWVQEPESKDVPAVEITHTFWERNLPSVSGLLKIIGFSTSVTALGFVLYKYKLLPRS
Procedure: Two isoforms of MAOs, namely MAO-A and MAO-B, are expressed in CNS, showing different substrate specificity. Consequently, different pharmacological effects can be elicited depending on the inhibited MAO isoform. Therefore, the prepared O^6-aminoalkyl-hispidol analogs were evaluated against both recombinant human MAO-A and MAO-B isoforms following the well-established spectrophotometric method.
2. Biological evaluations
2.1. In vitro assay of human monoamine oxidases inhibition
The MAO activity was quantified by measuring fluorescence intensity evoked by Amplex red reaction in which Amplex red reacts with hydrogen peroxide from the MAO reaction to produce highly fluorescent resorufin. The test compound in DMSO (final concentration: 1 nM – 10 μM or 10 nM – 100 μM ) and hMAO enzyme (Sigma Aldrich, St. Louis, MO, USA) in 50 mM sodium phosphate buffer (pH 7.4, final protein amount: ~1.25 μg of MAO-A/well and 2.5 μg of MAO-B/well) were loaded on 96-well black plate and incubated for 15 min at 37 °C. Then working solution of 200 μM Amplex Red (Cayman, Ann Arbor, MI, USA), 1 U/mL horseradish peroxidase (Sigma-Aldrich) and 1 mM substrate (p-tyramine for MAO-A, benzylamine for MAO-B, Sigma-Aldrich) in 50 mM sodium phosphate buffer (pH 7.4) was added and incubated for 20 min at 37 °C in the dark. The fluorescence was measured using a microplate reader (SpectraMax®i3, Molecular Device, San Jose, CA, USA) with an excitation at 545 nm and an emission at 590 nm. […]
as §1

[4] = test system: PGE2 production in LPS-induced BV2 cells; experiment: Inhibition of LPS-induced production of PGE2 in BV2 cells; format: cell-based, murine; conditions: LPS 500 ng/ml
Procedure: indicated concentrations of test compounds for 24 h. After replacing the culture media with fresh
2.3.2. Inhibition of LPS-induced production of PGE2
The concentrations of PGE2 in
Sciences, NY, USA) according to the manufacturer’s instructions. […]

microglial BV2 cells = experiment: BV2 cell viability (WST-1 assay); conditions: up to 10 micromolar, in presence of LPS, 24 h
Procedure: 2.3. In vitro cellular evaluations
2.3.1. Cell culture and viability determination
Murine BV2 microglial cells obtained from the Korean Cell Line Bank (Seoul, Republic of Korea) were cultured in DMEM with 10% FBS, 100 U/ml penicillin, and 100 μg/ml streptomycin at 37°C in a humidified 5% CO2 atmosphere. Cell viability and toxicity were determined by the WST-1 assay (Roche, Mannheim, Germany). Briefly, BV2 cells in sterile plates were incubated with the […]

MAO-A = conditions: Figure 1, cited from earlier work
[5] = 10 mg/kg p.o., donepezil 5 mg/kg p.o. as comparator

Compound: O=c1ccoc2ccc(OCCCN3CCCCC3)cc12 [Compound 1]
- IC50 (AChE): 5.58 µM
- IC50 (MAO-B; chromone-based compound 1, Figure 1): 7.2 µM

Compound: CCN(CC)CCOc1ccc2c(c1)O/C(=C\c1ccccc1OC)C2=O [Compound 3aa]
- Antidepressant-like effect in forced-swim test [1]: did not show antidepressant-like effects
- Immobility time in forced-swim test [1]: significantly increased immobility time
- AChE potency relative to the reference galantamine ([2]; ratio of potency): ~1.8 times
- IC50 [2]: 2.67 ± 0.05 µM
- MAO-B Selectivity Index (recombinant human MAO-B; calculated from MAO-A and MAO-B IC50 values): >104
- inhibition at 10 µM (recombinant human MAO-B): 91.49 ± 0.27%
- IC50 (recombinant human MAO-B): 0.96 ± 0.004 µM
- Latency in the retention experiment, passive avoidance ([3]; 1 mg/kg p.o.): did not show significant amelioration of cognitive deficits
- Latency in the retention experiment, passive avoidance [3, 5]: did not show significant amelioration of cognitive deficits
- inhibition at 1 µM (recombinant human MAO-A; single dose concentration of 1 µM, ±sem, NI = no measured inhibition): < 0%
- inhibition at 100 µM (recombinant human MAO-A; single dose concentration of 100 µM, ±sem): 27.2 ± 2.94%
- IC50 (recombinant human MAO-A; ±sem, read-out: MAO-A IC50): > 100 µM
- LPS-induced PGE2 production in BV2 cells ([4]; 10 micromolar dose): returned to almost normal levels
- LPS-induced PGE2 production in BV2 cells ([4]; five micromolar concentration): attrition of the inhibitory effect

Compound: COc1cc(/C=C2\Oc3cc(OCCN4CCCC4)ccc3C2=O)cc(OC)c1OC [Compound 3bc]
- Antidepressant-like effect in forced-swim test [1]: did not show antidepressant-like effects
- Immobility time in forced-swim test [1]: significantly increased immobility time
- inhibition at 10 µM (recombinant human MAO-B): 99.3 ± 0.38%
- IC50 (recombinant human MAO-B): 0.34 ± 0.002 µM
- Latency in the retention experiment, passive avoidance ([3]; 1 mg/kg p.o.): significantly enhanced latency
- Latency in the retention experiment, passive avoidance [3, 5]: significantly enhanced latency; also recorded: as effective as donepezil
- Cellular viability of microglial BV2 cells (microglial BV2 cells): absence of cytotoxic activity
- IC50 (recombinant human MAO-A): > 100 µM
- inhibition at 1 µM (recombinant human MAO-A): < 0%
- inhibition at 100 µM (recombinant human MAO-A): 21.4 ± 3.51%
- LPS-induced PGE2 production in BV2 cells ([4]; 10 micromolar dose): returned to almost normal levels
- LPS-induced PGE2 production in BV2 cells ([4]; five micromolar concentration): normal PGE2 production level

Compound: COc1ccc(/C=C2\Oc3cc(O)ccc3C2=O)c(OC)c1OC [Hispidol Analog]
- IC50 (MAO-A; ring-B methoxylated hispidol analog): > 100 µM
- IC50 (MAO-B; ring-B methoxylated hispidol analog, Figure 1): 0.17 µM

Compound: O=C1/C(=C/c2ccc(O)cc2)Oc2cc(O)ccc21 [Hispidol, hispidol]
- IC50 (MAO-A; reported value for hispidol): 0.26 µM
- IC50 [2]: 202 µM
- IC50 (MAO-B; reported value for hispidol): 2.45 µM
